Assay results as given in patent publication US20190315711A1 (eXIthera Pharmaceuticals, Inc., priority 2016, published 2019).

Tests used:
[1] = Plasma protein binding by equilibrium dialysis; format: in vitro ADME; settings: both sexes, pooled plasma, pH 7.4, human plasma protein binding, read-out: PPB
Method: The following procedure was used to determine the plasma protein binding of a test compound in pooled plasma from human (mixed gender) via equilibrium dialysis in a 96-well plate format. The dialysate compartment was loaded with phosphate-buffered saline (pH 7.4) and the sample side was loaded with plasma spiked with the test compound at a concentration of 10 μM. After loading, samples were covered and incubated for 4 hours at 37° C. After incubation, each compartment was sampled, diluted with acetonitrile/buffer and centrifuged. The supernatants were analyzed by HPLC-MS/MS. The analyte peak areas obtained from HPLC-MS/MS analysis of each sample were used to calculate protein binding according to the following equation (Equation 4):
where: AREAp=Peak area of analyte in protein matrix; AREAb=Peak area of analyte in buffer. The amount measured in the plasma compartment included both free and bound drug, while that on the buffer side represented free drug only; the differences were used to calculate the percentage plasma protein bound. Three reference compounds were tested in each assay: acebutolol, quinidine and warfarin.

[2] = Determination of bioavailability in a dog; format: in vivo; settings: plasma, male beagle dogs, IV 1 mg/kg vs oral gavage 5 mg/kg
Method: The following protocol was used to estimate the bioavailability of test compounds in a dog. Test compounds were formulated in vehicles compatible with intravenous and oral dosing. Test compounds were administered to male beagle dogs via an intravenous bolus at 1 mg/kg (1 mg/mL at a dose volume of 1 mL/kg) or via oral gavage at 5 mg/kg (1 mg/mL at a dose volume of 5 mL/kg). Blood samples were collected via the contralateral (to intravenous bolus) jugular vein or via other accessible vein, at various timepoints following administration out to 24 hours post dose. Plasma samples (EDTA) were obtained by centrifugation (2200×g for 10 minutes at 5° C.) and stored frozen ([…]) until analyzed for parent compound via LC/MS/MS. Pharmacokinetic parameters were estimated from the plasma concentration time data by standard non-compartmental methods utilizing standard analysis software. By comparing the area under the curve (AUC) for IV and PO administration estimates of oral bioavailability were determined.

fraction unbound at 4 h, 10 μM [1] | bioavailability [2] | Structure (SMILES)
< 0.05 |  | Cc1ccccc1N(C)C(=O)[C@@H]1[C@@H](Cc2ccnc(N)c2)C(=O)N1C(=O)N[C@@H](C1CCCCC1)C(F)(F)F [Compound 15]
0.1 to 0.5 |  | CN(C(=O)[C@@H]1[C@@H](Cc2ccnc(N)c2)C(=O)N1C(=O)N[C@@H](C1CCCCC1)C(F)(F)F)c1cccnc1 [Compound 17]
0.1 to 0.5 |  | CN(C(=O)[C@@H]1[C@@H](Cc2ccnc(N)c2)C(=O)N1C(=O)N[C@@H](C1CCCCC1)C(F)(F)F)c1ccncc1 [Compound 18]
0.05 to 0.09 |  | CN(C(=O)[C@@H]1[C@@H](Cc2ccnc(N)c2)C(=O)N1C(=O)N[C@@H](C1CCCCC1)C(F)(F)F)c1cncnc1 [Compound 19]
< 0.05 | ≤ 10% | CN(C(=O)[C@@H]1[C@@H](Cc2ccnc(N)c2)C(=O)N1C(=O)N[C@@H](C1CCCCC1)C(F)(F)F)c1ncccn1 [Compound 21]
< 0.05 |  | CN(C(=O)[C@@H]1[C@@H](Cc2ccnc(N)c2)C(=O)N1C(=O)N[C@@H](C1CCCCC1)C(F)(F)F)c1cccc(F)c1 [Compound 22]
< 0.05 |  | CCN(C(=O)[C@@H]1[C@@H](Cc2ccnc(N)c2)C(=O)N1C(=O)N[C@@H](C1CCCCC1)C(F)(F)F)c1ccccc1 [Compound 24]
0.1 to 0.5 | 11 to 30% | CC[C@@H](NC(=O)N1C(=O)[C@H](Cc2ccnc(N)c2)[C@H]1C(=O)N(C)c1ccncc1)C1CCCCC1 [Compound 25]
0.05 to 0.09 | > 30% | CC[C@@H](NC(=O)N1C(=O)[C@H](Cc2ccnc(N)c2)[C@H]1C(=O)N(C)c1ccccc1)C1CCCCC1 [Compound 27]
< 0.05 | 11 to 30% | CN(C(=O)[C@@H]1[C@@H](Cc2ccnc(N)c2)C(=O)N1C(=O)N[C@@H](C1CCCCC1)C1CC1)c1ccccc1 [Compound 36]
 | ≤ 10% | CC[C@@H](NC(=O)N1C(=O)[C@H](Cc2ccnc(N)c2)[C@H]1C(=O)N(CC)c1ncccn1)C1CCCCC1 [Compound 39]
0.1 to 0.5 | > 30% | CC[C@@H](NC(=O)N1C(=O)[C@H](Cc2ccnc(N)c2)[C@H]1C(=O)N(C)c1ccncc1)c1ccccc1 [Compound 42]
0.1 to 0.5 |  | CC[C@@H](NC(=O)N1C(=O)[C@H](Cc2ccnc(N)c2)[C@H]1C(=O)N(C)c1ccccc1)c1cccnc1 [Compound 44]
0.1 to 0.5 |  | CC[C@@H](NC(=O)N1C(=O)[C@H](Cc2ccnc(N)c2)[C@H]1C(=O)N(C)c1ccccc1)C1CC1 [Compound 46]
0.05 to 0.09 |  | C[C@@H](NC(=O)N1C(=O)[C@H](Cc2ccnc(N)c2)[C@H]1C(=O)N(C)c1ccccc1)C1CCCCC1 [Compound 49]
< 0.05 |  | CCC[C@@H](NC(=O)N1C(=O)[C@H](Cc2ccnc(N)c2)[C@H]1C(=O)N(C)c1ccccc1)C1CCCCC1 [Compound 50]
0.05 to 0.09 | ≤ 10% | CN(C(=O)[C@@H]1[C@@H](Cc2ccnc(N)c2)C(=O)N1C(=O)N[C@@H](C1CCCCC1)C1CC1)c1ccncc1 [Compound 52]
< 0.5 | 11 to 30% | CC[C@@H](NC(=O)N1C(=O)[C@H](Cc2ccnc(N)c2)[C@H]1C(=O)N(C)c1ccncc1)c1cccnc1 [Compound 59]
< 0.5 | ≤ 10% | CC[C@@H](NC(=O)N1C(=O)[C@H](Cc2ccnc(N)c2)[C@H]1C(=O)N(C)c1ncccn1)c1cccnc1 [Compound 61]

fraction unbound at 4 h, 10 μM [1] | bioavailability [2] | Structure (SMILES)
< 0.5 |  | CN(C(=O)[C@@H]1[C@@H](Cc2ccnc(N)c2)C(=O)N1C(=O)N[C@@H](C1CC1)C(F)(F)F)c1ccncc1 [Compound 77]
0.1 to 0.5 |  | CN(C(=O)[C@@H]1[C@@H](Cc2ccnc(N)c2)C(=O)N1C(=O)N[C@@H](C1CC1)C(F)(F)F)c1ncccn1 [Compound 78]
< 0.05 | > 30% | CC[C@@H](NC(=O)N1C(=O)[C@H](Cc2ccnc(NC)c2)[C@H]1C(=O)N(C)c1ncccn1)C1CCCCC1 [Compound 80]
< 0.05 |  | CC[C@@H](NC(=O)N1C(=O)[C@H](Cc2ccnc(N)c2)[C@H]1C(=O)N(C)c1ncncn1)C1CCCCC1 [Compound 81]
0.05 to 0.09 |  | CN(C(=O)[C@@H]1[C@@H](Cc2ccnc(N)c2)C(=O)N1C(=O)NC(c1ccccc1)c1ccccc1)c1ccncc1 [Compound 82]
0.1 to 0.5 |  | CC[C@@H](NC(=O)N1C(=O)[C@H](Cc2ccnc(N)c2)[C@H]1C(=O)N(C)c1ncncn1)c1ccccc1 [Compound 83]
0.1 to 0.5 | > 30% | CC[C@@H](NC(=O)N1C(=O)[C@H](Cc2ccnc(N)c2)[C@H]1C(=O)N(C)c1ncccn1)c1ccccc1 [Compound 84]
< 0.05 |  | CCC[C@@H](NC(=O)N1C(=O)[C@H](Cc2ccnc(N)c2)[C@H]1C(=O)N(C)c1ccncc1)c1ccccc1 [Compound 86]
< 0.05 | > 30% | CC[C@@H](NC(=O)N1C(=O)[C@H](Cc2ccnc(N)c2)[C@H]1C(=O)N(C)c1ccncc1)c1cccc(C)c1 [Compound 87]
0.05 to 0.09 |  | CC[C@@H](NC(=O)N1C(=O)[C@H](Cc2ccnc(N)c2)[C@H]1C(=O)N(C)c1ccncc1)c1ccc(Cl)cc1 [Compound 89]
< 0.05 | > 30% | CC[C@@H](NC(=O)N1C(=O)[C@H](Cc2ccnc(N)c2)[C@H]1C(=O)N(C)c1ccncc1)c1cccc(Cl)c1 [Compound 90]
0.05 to 0.09 | > 30% | CC[C@@H](NC(=O)N1C(=O)[C@H](Cc2cc(C)nc(N)c2)[C@H]1C(=O)N(C)c1ccccc1)C1CCCCC1 [Compound 91]
0.05 to 0.09 |  | CC[C@@H](NC(=O)N1C(=O)[C@H](Cc2ccnc(N)c2)[C@H]1C(=O)N(C)c1ccncc1)c1ccccc1Cl [Compound 95]
0.1 to 0.5 |  | CC[C@H](NC(=O)N1C(=O)[C@H](Cc2ccnc(N)c2)[C@H]1C(=O)N(C)c1ccncc1)c1ccccc1C [Compound 97]
0.1 to 0.5 |  | CC[C@@H](NC(=O)N1C(=O)[C@H](Cc2ccnc(N)c2)[C@H]1C(=O)N(C)c1ccncc1)c1cccc(C#N)c1 [Compound 99]
0.1 to 0.5 |  | CC[C@@H](NC(=O)N1C(=O)[C@H](Cc2ccnc(N)c2)[C@H]1C(=O)N(C)c1ccncc1)c1cccc(OC)c1 [Compound 100]
< 0.05 |  | CC[C@@H](NC(=O)N1C(=O)[C@H](Cc2cc(C)nc(N)c2)[C@H]1C(=O)N(C)c1ccccc1)c1cccc(Cl)c1 [Compound 120]
0.05 to 0.09 |  | CC[C@@H](NC(=O)N1C(=O)[C@H](Cc2ccnc(N)c2)[C@H]1C(=O)N(C)c1ncccn1)c1cccc(Cl)c1 [Compound 121]
< 0.05 |  | CC[C@@H](NC(=O)N1C(=O)[C@H](Cc2ccnc(NC(=O)OC(C)(C)C)c2)[C@H]1C(=O)N(C)c1ccncc1)c1cccc(Cl)c1 [Compound 127]
